Laboratory results as given in ChEMBL document CHEMBL1201862, “PubChem BioAssay data set” (2004).
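Exposure lasted 48 hours, with cells grown in 96-well plates and compounds tested at five concentrations. Abbreviation: GI50, concentration required for 50% inhibition of growth.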 The source made the active and inactive calls. No stated cut-off is given here; in the data, active = GI50 up to about 1.1 µM and inactive = higher.

Experiments:
Assay in all cases: NCI anticancer screen, dose series, 48 h
[1] = tested on: IGROV-1
[2] = tested on: SK-MEL-5
[3] = tested on: HT-29
[4] = tested on: NCI/ADR-RES
[5] = tested on: Hs-578T
[6] = tested on: UO-31
[7] = tested on: Malme-3M
[8] = tested on: SK-MEL-2
[9] = tested on: DU-145
[10] = tested on: EKVX
[11] = tested on: M14
[12] = tested on: MDA-MB-435
[13] = tested on: SF-295
[14] = tested on: UACC-62
[15] = tested on: NCI-H460
[16] = tested on: LOX IMVI
[17] = tested on: MDA-MB-231
[18] = tested on: CCRF-CEM
[19] = tested on: 786-0
[20] = tested on: MOLT-4
[21] = tested on: HOP-62
[22] = tested on: NCI-H522
[23] = tested on: SR
[24] = tested on: OVCAR-4
[25] = tested on: ACHN
[26] = tested on: OVCAR-5
[27] = tested on: HCC 2998
[28] = tested on: SW-620
[29] = tested on: RPMI-8226
[30] = tested on: MDA-N
[31] = tested on: NCI-H23
[32] = tested on: SK-MEL-28
[33] = tested on: BT-549
[34] = tested on: NCI-H226
[35] = tested on: SNB-75
[36] = tested on: K562
[37] = tested on: HCT-116
[38] = tested on: TK-10
[39] = tested on: RXF 393
[40] = tested on: PC-3
[41] = tested on: SNB-19
[42] = tested on: OVCAR-8
[43] = tested on: SK-OV-3
[44] = tested on: UACC-257
[45] = tested on: KM12
[46] = tested on: HCT-15
[47] = tested on: COLO 205
[48] = tested on: HL-60
[49] = tested on: MCF7
[50] = tested on: SN12C
[51] = tested on: HOP-92
[52] = tested on: A549
[53] = tested on: U-251
[54] = tested on: T47D
[55] = tested on: SF-268
[56] = tested on: CAKI-1
[57] = tested on: SF-539
[58] = tested on: OVCAR-3

Question: Which GI50 [1] does the source give for `COC/C=C\[C@@]1(O)CCCC[C@@H]1CC(OC)OC` here?
Answer: 32.5 µM (inactive)

Question: What about the GI50 [2] of the same molecule?
Answer: > 94.2 µM (inactive)

Question: What about the GI50 [3] of the same molecule?
Answer: > 59.6 µM (inactive)

Question: And the GI50 [4]?
Answer: 38.2 µM (inactive)

Question: What about the GI50 [5] of the same molecule?
Answer: 37.2 µM (inactive)

Question: What about the GI50 [6] of the same molecule?
Answer: 32.1 µM (inactive)

Question: What about the GI50 [7] of the same molecule?
Answer: 77.4 µM (inactive)

Question: What about the GI50 [8] of the same molecule?
Answer: > 100 µM (inactive)

Question: And the GI50 [9]?
Answer: 38.5 µM (inactive)

Question: What about the GI50 [10] of the same molecule?
Answer: > 100 µM (inactive)

Question: What about the GI50 [11] of the same molecule?
Answer: 46.7 µM (inactive)

Question: What about the GI50 [12] of the same molecule?
Answer: 28.3 µM (inactive)

Question: And the GI50 [13]?
Answer: 43.4 µM (inactive)

Question: And the GI50 [14]?
Answer: 11.7 µM (inactive)

Question: And the GI50 [15]?
Answer: 33.3 µM (inactive)

Question: What about the GI50 [16] of the same molecule?
Answer: 7.03 µM (inactive)

Question: And the GI50 [17]?
Answer: > 100 µM (inactive)

Question: What about the GI50 [18] of the same molecule?
Answer: 19.2 µM (inactive)

Question: What about the GI50 [19] of the same molecule?
Answer: 30 µM (inactive)

Question: And the GI50 [20]?
Answer: 9.46 µM (inactive)

Question: And the GI50 [21]?
Answer: 36.2 µM (inactive)

Question: And the GI50 [22]?
Answer: 17.5 µM (inactive)

Question: And the GI50 [23]?
Answer: 37.3 µM (inactive)

Question: And the GI50 [24]?
Answer: 31.8 µM (inactive)

Question: And the GI50 [25]?
Answer: 10.1 µM (inactive)

Question: And the GI50 [26]?
Answer: > 100 µM (inactive)

Question: What about the GI50 [27] of the same molecule?
Answer: > 100 µM (inactive)

Question: And the GI50 [28]?
Answer: 32.5 µM (inactive)

Question: And the GI50 [29]?
Answer: 22.8 µM (inactive)

Question: What about the GI50 [30] of the same molecule?
Answer: 33.7 µM (inactive)

Question: What about the GI50 [31] of the same molecule?
Answer: 39.6 µM (inactive)

Question: What about the GI50 [32] of the same molecule?
Answer: 37.4 µM (inactive)

Question: What about the GI50 [33] of the same molecule?
Answer: 64 µM (inactive)

Question: What about the GI50 [34] of the same molecule?
Answer: > 59.2 µM (inactive)

Question: And the GI50 [35]?
Answer: 60 µM (inactive)

Question: What about the GI50 [36] of the same molecule?
Answer: 11.9 µM (inactive)

Question: And the GI50 [37]?
Answer: 22.7 µM (inactive)

Question: What about the GI50 [38] of the same molecule?
Answer: > 100 µM (inactive)

Question: And the GI50 [39]?
Answer: > 54.3 µM (inactive)

Question: What about the GI50 [40] of the same molecule?
Answer: 49.5 µM (inactive)

Question: What about the GI50 [41] of the same molecule?
Answer: 43.6 µM (inactive)

Question: And the GI50 [42]?
Answer: 29.9 µM (inactive)

Question: And the GI50 [43]?
Answer: > 100 µM (inactive)

Question: And the GI50 [44]?
Answer: > 100 µM (inactive)

Question: And the GI50 [45]?
Answer: 31 µM (inactive)

Question: What about the GI50 [46] of the same molecule?
Answer: 27.4 µM

Question: And the GI50 [47]?
Answer: > 95.5 µM (inactive)

Question: What about the GI50 [48] of the same molecule?
Answer: 6.98 µM (inactive)

Question: And the GI50 [49]?
Answer: 2.75 µM (inactive)

Question: What about the GI50 [50] of the same molecule?
Answer: 17.5 µM (inactive)

Question: And the GI50 [51]?
Answer: > 100 µM (inactive)

Question: And the GI50 [52]?
Answer: 68.7 µM (inactive)

Question: What about the GI50 [53] of the same molecule?
Answer: 31.8 µM (inactive)

Question: And the GI50 [54]?
Answer: 34.1 µM (inactive)

Question: And the GI50 [55]?
Answer: 30.2 µM (inactive)

Question: What about the GI50 [56] of the same molecule?
Answer: > 100 µM (inactive)

Question: And the GI50 [57]?
Answer: 48.5 µM (inactive)

Question: And the GI50 [58]?
Answer: 54.5 µM (inactive)
